According to patent publication US20090211893A1, “Photo-Activatable Amino Acids” (priority 2005, published 2009):

How the values were obtained:
COS7 cells [1] = test: Cell viability by trypan blue exclusion; assay type: cell-based, monkey; conditions: LM-2 medium supplement; percent ± SD of viable cells (n = 6)
Excerpt: Unnatural amino acids frequently are toxic to cells. To find out if this is the case for photo-amino acids of the invention, we monitored in COS7 cells protein biosynthesis by incorporation of [^3H]Phe and viability by trypan blue exclusion of cells grown in the presence or absence of the photo-amino acids photo-Leu, photo-Met and photo-Ile. Due to the lack of two essential amino acids in the growth medium, protein biosynthesis is reduced to about 65% of that in a full growth medium. […] Although cells grew slightly slower than in full growth medium, viability (Table 2) and cell morphology (not shown) were unaffected.

COS7 cells [2] = test: Incorporation of [1-14C]photo-Met and [3H]Phe into newly synthesized protein; assay type: cell-based, monkey
Protocol: Cells were washed 6 times with PBS and lysed in 0.5% Triton X-100, 0.2% sodium deoxycholate. Aggregated DNA was removed, protein was precipitated^43, the pellet was redissolved in 0.3 ml 0.5% SDS and subjected to a second round of precipitation. […] The dried pellet was redissolved and processed for scintillation counting (data of Table 1 and FIG. 4b) or processed as follows for amino acid analysis (FIG. 2b): the pellet was dissolved in 600 µl 50 mM NH4HCO3, 0.5% SDS, 3 mM CaCl2 containing 0.25 mg pronase (Roche) followed by incubation at 37° C. for 20 h. The sample was lyophilized, dissolved in 600 μl of 7 N HCl containing 4 mg of glutamic acid and 6 mg of photo-Met and heated to 70° C. for 24 h. A Dowex 50WX8 column (1.6×24 cm) was prepared^18 and equilibrated with 0.1 M sodium citrate pH 3.8. The sample was concentrated to 50 μl in a speed-vak, diluted to 1 ml with 0.1 M sodium citrate pH 3.8, and loaded onto the column. The column was eluted at 24° C. at a flow rate of 20 ml/h with 70 ml 0.1 M sodium citrate pH 3.8, 26 ml 0.1 M sodium citrate pH 4.3 and 100 ml of 0.1 M sodium citrate pH 4.5. Fractions of 3 ml were collected and assayed for absorbance at 350 nm, radioactivity by scintillation counting, and amino groups by the fluorescamine method^44.
To decrease competition for activation by tRNA synthetases, media devoid of the structurally related amino acids Leu and Met (LM-2) or, for some experiments, devoid of Leu, Met, Ile and Val (LM-4) were used. Proteins incorporated radioactivity as shown by autoradiography after separation by SDS-PAGE (FIG. 2a, lane 3). […] 88% of the radioactivity in the labeled proteins was intact [1-^14C]photo-Met (FIG. 2b, photo-Met). A small peak eluting slightly earlier than glutamic acid (FIG. 2 B, Glu) contained 7% of the radioactivity. This peak was also observed if free [1-^14C]photo-Met was heated with HCl under the conditions of the hydrolysis (data not shown) and therefore represents a product of thermal decomposition of the amino acid. Under the conditions employed, radioactivity originating from degradation/re-integration would be expected to appear as aspartate and glutamate (oxidative release of [^14C]CO2, metabolism via pyruvate carboxylase, citric acid cycle and transamination to Gln and Asn that will be hydrolyzed to Glu and Asp by hot HCl). However, no radioactivity was incorporated via this pathway. We conclude that at least 95% of incorporated radioactivity represents intact [1-^14C]photo-Met. To obtain quantitative data on the frequency of incorporation of photo-Met into newly synthesized protein, we performed co-labeling with [1-^14C]photo-Met and [^3H]Phe. […] Two in three hundred amino acids in newly synthesized protein will be photo-Met.

HA-tagged human PGRMC1 = test: Competition of PGRMC1 cross-linking by natural amino acids; assay type: cell-based; conditions: 3 mM competing amino acid, COS7 cells in LM-4
Protocol: FIG. 4: Specificity of incorporation and cross-linking by photo-Met and photo-Leu. COS7 cells were transfected with HA-tagged human PGRMC1 and were grown in LM-4 in the absence or presence of photo-Leu (A) or photo-Met (B) with addition of 3 mM of the indicated competing amino acid. cross-linked products formed after UV-irradiation were detected by SDS-PAGE followed by western blotting against the HA-epitope. (C) COS7 cells were grown in the presence of 1.7 mM [1-^14C]photo-Met, a constant trace amount of [^3H]Phe and 3 mM of competing unlabeled amino acids as indicated in the legend. Protein was precipitated and protein-bound radioactivity was determined by scintillation counting. […] The control value obtained in the absence of competing amino acid (con) is set to 100. Data are average±SD of triplicate determinations.
If so, addition of the complementary naturally occurring amino acid should strongly reduce incorporation and inhibit photo-crosslinking. […] To find out if competition for cross-linking reflects competition for incorporation, we competed incorporation of [1-^14C]photo-Met with the same set of amino acids (FIG. 4c). […] It should be noted that Met, Val, Leu and Ile all are transported into cells by the L-type transport system^25, which presumably also transports the three photo-amino acids. The strong difference in competition by Met and Leu versus Val and Ile excludes competition at the level of uptake.

`CC1(CCC(N)C(=O)O)N=N1` [photo-Met, L-2-amino-5,5′-azi-hexanoic acid] was tested, and the Cell viability (COS7 cells [1]) was 99.8 ± 0.1%, the “frequency of substitution of photo-Met for Met” value (COS7 cells [2]) was 35% and the “competition of cross-linking by Met, Val, Leu and Ile” value (HA-tagged human PGRMC1) was “mainly by Met, and to a lower extent by Leu”. For the same compound, the “effect of Val and Ile on cross-linking” value (HA-tagged human PGRMC1) was “did not compete, but even enhance”.
